Like-named read-outs stand apart in the source and are kept apart here.
Key:
BRAF V600E = target: T1, BRAF V600E (Homo sapiens, UniProt P15056, V600E); assay: BRAF V600E biochemical kinase activity assay (AlphaScreen, biotin-MEK1 substrate); conditions: BRAF V600E biochemical inhibitory activity
T1 construct: purchased Upstate Biotechnology

B9 (HRAS Q61L) cell line = assay: B9 P-ERK cell activation assay (AlphaScreen); format: cell-based, mouse; conditions: Mus musculus, P-ERK cell activation, B9, read-out: Cell activity (EC50 μM) B9_pERK
Outline: (§1)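 Phospho-ERK1/2 (Thr202/Tyr204) in lysates quantified via AlphaScreen bead proximity, after one-hour, 37° C. exposure of cells to eight compound concentrations. Lines: IPC-298 human melanoma with activated NRAS; B9 mouse squamous carcinoma with activated HRAS.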

[1] = test system: IPC-298 (NRAS Q61L) cell line; assay: IPC-298 P-ERK cell activation assay (AlphaScreen); format: cell-based, human; conditions: Homo sapiens; P-ERK cell activation, IPC-298; numeric bounds; read-out: Cell activity (EC50 μM) IPC-298_P-ERK
Outline: as §1

[2] = test system: A375 (BRAF V600E) cell line; assay: A375 P-ERK inhibition assay (AlphaScreen); format: cell-based, human; conditions: Homo sapiens, A-375; A375_P-ERK
Outline: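 Phospho-ERK1/2 (Thr202/Tyr204) detected in lysates by AlphaScreen proximity signal, pairing a total-ERK antibody with a phospho-specific antibody. Before lysis, A375 cells received compound as an 8-point titration for one hour at 37° C.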

T1 sequence (P15056 whole entry V600E): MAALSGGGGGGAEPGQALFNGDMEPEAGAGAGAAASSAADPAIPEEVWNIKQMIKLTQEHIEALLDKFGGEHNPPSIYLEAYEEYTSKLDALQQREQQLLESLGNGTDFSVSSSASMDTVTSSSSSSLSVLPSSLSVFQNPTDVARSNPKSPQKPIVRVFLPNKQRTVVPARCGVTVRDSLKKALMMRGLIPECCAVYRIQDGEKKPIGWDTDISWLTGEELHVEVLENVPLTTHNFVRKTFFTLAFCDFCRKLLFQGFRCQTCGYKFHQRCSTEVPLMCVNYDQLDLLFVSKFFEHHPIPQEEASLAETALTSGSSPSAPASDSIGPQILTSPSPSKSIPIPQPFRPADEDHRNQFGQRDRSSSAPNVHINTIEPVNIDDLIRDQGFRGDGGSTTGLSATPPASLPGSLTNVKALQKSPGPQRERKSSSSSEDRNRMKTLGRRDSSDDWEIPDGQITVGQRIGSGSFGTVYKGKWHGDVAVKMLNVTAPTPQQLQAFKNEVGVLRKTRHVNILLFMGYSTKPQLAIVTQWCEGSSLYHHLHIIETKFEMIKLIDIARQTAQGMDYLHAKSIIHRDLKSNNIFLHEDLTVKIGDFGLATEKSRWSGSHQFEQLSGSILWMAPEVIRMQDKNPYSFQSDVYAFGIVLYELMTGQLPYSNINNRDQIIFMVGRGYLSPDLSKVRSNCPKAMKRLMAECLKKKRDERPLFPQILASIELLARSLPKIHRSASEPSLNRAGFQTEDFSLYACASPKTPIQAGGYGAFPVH

Row | SMILES | IC50 (BRAF V600E) [µM] | EC50 (B9 (HRAS Q61L) cell line; numeric bounds) [µM] | EC50 [1] [µM] | IC50 [2] [µM] | EC50 (B9 (HRAS Q61L) cell line; class symbols) [µM]
1 | O=C(c1cc(C(F)(F)F)cc(NS(=O)(=O)N2CC[C@@H](F)C2)c1F)c1c[nH]c2ncc(-c3cnc(C4CC4)nc3)cc12 [P-2178, (3R)—N-[3-[5-(2-cyclopropylpyrimidin-5-yl)-1H-pyrrolo[2,3-b]pyridine-3-carbonyl]-2-fluoro-5-(trifluoromethyl)phenyl]-3-fluoro-pyrrolidine-1-sulfonamide] | 0.0001 to 1 | > 10 | > 10 | 1 to 10 | 
2 | CC(C)Nc1ncnc2[nH]cc(C(=O)c3c(F)ccc(NS(=O)(=O)N4CCCCC4)c3F)c12 [P-2038, N-[2,4-difluoro-3-[4-(isopropylamino)-7H-pyrrolo[2,3-d]pyrimidine-5-carbonyl]phenyl]piperidine-1-sulfonamide] | 0.0001 to 1 | > 10 | > 10 | 0.0001 to 1 | 
3 | CC(C)(C)c1nc(-c2cccc(NS(=O)(=O)N3CCCC3)c2F)c(Br)s1 [P-2127, N-[3-(5-bromo-2-tert-butyl-thiazol-4-yl)-2-fluoro-phenyl]pyrrolidine-1-sulfonamide] | 0.0001 to 1 | > 10 | > 10 | > 10 | 
4 | N#Cc1ccnc2[nH]cc(C(=O)c3c(F)ccc(NS(=O)(=O)N4CCOCC4)c3F)c12 [P-2022, N-[3-(4-cyano-1H-pyrrolo[2,3-b]pyridine-3-carbonyl)-2,4-difluoro-phenyl]morpholine-4-sulfonamide] | 0.0001 to 1 | > 10 | > 10 | 0.0001 to 1 | 
5 | COC(=O)N[C@@H](C)CNc1nccc(-c2nn(C(C)C)cc2-c2cc(Cl)cc(NS(=O)(=O)N3CC[C@@H](F)C3)c2F)n1 [P-2161, methyl N-[(1S)-2-[[4-[4-[5-chloro-2-fluoro-3-[[(3R)-3-fluoropyrrolidin-1-yl]sulfonylamino]phenyl]-1-isopropyl-pyrazol-3-yl]pyrimidin-2-yl]amino]-1-methyl-ethyl]carbamate] | 0.0001 to 1 |  | > 10 | 0.0001 to 1 | 0.0001 to 1
6 | CN(C)S(=O)(=O)Nc1cc(F)cc(C(=O)c2c[nH]c3ncc(-c4cnc(C5CC5)nc4)cc23)c1F [P-2173, 5-(2-cyclopropylpyrimidin-5-yl)-3-[3-(dimethylsulfamoylamino)-2,5-difluoro-benzoyl]-1H-pyrrolo[2,3-b]pyridine] | 0.0001 to 1 | > 10 | > 1 | 0.0001 to 1 | 
7 | CC(=O)Nc1ccc(NC(=O)c2c(F)ccc(NS(=O)(=O)N3CCCCC3)c2F)cn1 [P-2033, N-(6-acetamido-3-pyridyl)-2,6-difluoro-3-(1-piperidylsulfonylamino)benzamide] | 0.0001 to 1 | > 10 | > 10 | > 10 | 
8 | CCCC(C)S(=O)(=O)Nc1ccc(F)c(C(=O)c2c[nH]c3nccc(OC)c23)c1F (stereo not shown) [Compound P-2009, N-[2,4-difluoro-3-(4-methoxy-1H-pyrrolo[2,3-b]pyridine-3-carbonyl)phenyl]pentane-2-sulfonamide] | 0.0001 to 1 | > 10 | > 10 | 1 to 10 | 
9 | O=C(c1cccc(NS(=O)(=O)N2CCCC2)c1F)c1c[nH]c2ncnc(NCCN3CCOCC3)c12 [P-2110, N-[2-fluoro-3-[4-(2-morpholinoethylamino)-7H-pyrrolo[2,3-d]pyrimidine-5-carbonyl]phenyl]pyrrolidine-1-sulfonamide] | 0.0001 to 1 | > 10 | > 10 | 0.0001 to 1 | 
10 | CC(C)(C)c1nc(-c2cccc(NS(=O)(=O)N3CCCC3)c2F)c(-c2ccnc3[nH]ccc23)s1 [P-2120, N-[3-[2-tert-butyl-5-(1H-pyrrolo[2,3-b]pyridin-4-yl)thiazol-4-yl]-2-fluoro-phenyl]pyrrolidine-1-sulfonamide] | 0.0001 to 1 | > 10 | > 10 | 1 to 10 | 
11 | CCN(CC)S(=O)(=O)Nc1ccc(F)c(C(=O)c2c[nH]c3nccc(OC)c23)c1F [Compound P-2004, 3-[3-(diethylsulfamoylamino)-2,6-difluoro-benzoyl]-4-methoxy-1H-pyrrolo[2,3-b]pyridine] | 1 to 10 | > 10 | > 10 | > 10 | 
12 | CCN(C)S(=O)(=O)Nc1cccc(-c2nc(C(C)(C)C)sc2-c2ccnc(N)n2)c1F [P-2089, 5-(2-aminopyrimidin-4-yl)-2-tert-butyl-4-[3-[[ethyl(methyl)sulfamoyl]amino]-2-fluoro-phenyl]thiazole] | 0.0001 to 1 | > 1 | > 1 | 0.0001 to 1 | 
13 | COC(=O)N[C@@H](C)CNc1nccc(-c2nn(C(C)C)cc2-c2cc(Cl)cc(NS(=O)(=O)N(C)C)c2F)n1 [P-2166, methyl N-[(1S)-2-[[4-[4-[5-chloro-3-(dimethylsulfamoylamino)-2-fluoro-phenyl]-1-isopropyl-pyrazol-3-yl]pyrimidin-2-yl]amino]-1-methyl-ethyl]carbamate] | 0.0001 to 1 |  | > 10 | 0.0001 to 1 | 0.0001 to 1
14 | CC(=O)Nc1ccc(NC(=O)c2c(F)ccc(NS(=O)(=O)C3CCCC3)c2F)cn1 [P-2035, N-(6-acetamido-3-pyridyl)-3-(cyclopentylsulfonylamino)-2,6-difluoro-benzamide] | 0.0001 to 1 | > 10 | > 10 | 1 to 10 | 

Results, then the compound that gave them:

Row | IC50 (BRAF V600E) [µM] | EC50 (B9 (HRAS Q61L) cell line; numeric bounds) [µM] | EC50 [1] [µM] | IC50 [2] [µM] | EC50 (B9 (HRAS Q61L) cell line; class symbols) [µM] | SMILES
15 | 0.0001 to 1 | > 10 | > 10 | 0.0001 to 1 |  | O=C(c1cccc(NS(=O)(=O)N2CCCC2)c1F)c1c[nH]c2ncnc(NC3CC3)c12 [P-2070, N-[3-[4-(cyclopropylamino)-7H-pyrrolo[2,3-d]pyrimidine-5-carbonyl]-2-fluoro-phenyl]pyrrolidine-1-sulfonamide]
16 | 0.0001 to 1 | > 10 | > 10 | 0.0001 to 1 |  | CCN(CC)S(=O)(=O)Nc1ccc(F)c(C(=O)c2c[nH]c3ncnc(NCC4CC4)c23)c1F [P-2052, 4-(cyclopropylmethylamino)-5-[3-(diethylsulfamoylamino)-2,6-difluoro-benzoyl]-7H-pyrrolo[2,3-d]pyrimidine]
17 | 0.0001 to 1 | > 10 | > 10 | 0.0001 to 1 |  | CCN(C)S(=O)(=O)Nc1ccc(F)c(C(=O)c2c[nH]c3ncnc(NC4CCC4)c23)c1F [P-2101, 4-(cyclobutylamino)-5-[3-[[ethyl(methyl)sulfamoyl]amino]-2,6-difluoro-benzoyl]-7H-pyrrolo[2,3-d]pyrimidine]
18 | 0.0001 to 1 | > 10 | > 10 | 0.0001 to 1 |  | CCN(C)S(=O)(=O)Nc1cccc(C(=O)c2c[nH]c3ncnc(N[C@@H](C)C4CC4)c23)c1F [P-2080, 4-[[(1S)-1-cyclopropylethyl]amino]-5-[3-[[ethyl(methyl)sulfamoyl]amino]-2-fluoro-benzoyl]-7H-pyrrolo[2,3-d]pyrimidine]
19 | 0.0001 to 1 | > 10 | > 10 | 0.0001 to 1 |  | CCN(C)S(=O)(=O)Nc1cccc(C(=O)c2c[nH]c3ncnc(NCC(F)(F)F)c23)c1F [P-2065, 5-[3-[[ethyl(methyl)sulfamoyl]amino]-2-fluoro-benzoyl]-4-(2,2,2-trifluoroethylamino)-7H-pyrrolo[2,3-d]pyrimidine]
20 | 0.0001 to 1 | > 10 | > 10 | 0.0001 to 1 |  | Cc1ncnc2[nH]cc(C(=O)c3cccc(NS(=O)(=O)N4CCCC4)c3F)c12 [P-2076, N-[2-fluoro-3-(4-methyl-7H-pyrrolo[2,3-d]pyrimidine-5-carbonyl)phenyl]pyrrolidine-1-sulfonamide]
21 | 0.0001 to 1 | > 10 | > 10 | 0.0001 to 1 |  | O=C(c1cccc(NS(=O)(=O)N2CCCC2)c1F)c1c[nH]c2ncnc(NCC3CC3)c12 [P-2057, N-[3-[4-(cyclopropylmethylamino)-7H-pyrrolo[2,3-d]pyrimidine-5-carbonyl]-2-fluoro-phenyl]pyrrolidine-1-sulfonamide]
22 | 0.0001 to 1 | > 10 | > 10 | 0.0001 to 1 |  | CCN(C)S(=O)(=O)Nc1cccc(C(=O)c2c[nH]c3ncnc(NCC(C)(C)O)c23)c1F [P-2069, 5-[3-[[ethyl(methyl)sulfamoyl]amino]-2-fluoro-benzoyl]-4-[(2-hydroxy-2-methyl-propyl)amino]-7H-pyrrolo[2,3-d]pyrimidine]
23 | 0.0001 to 1 | > 10 | > 10 | 0.0001 to 1 |  | CCOC(=O)CNc1ncnc2[nH]cc(C(=O)c3cccc(NS(=O)(=O)N4CCCC4)c3F)c12 [P-2103, ethyl 2-[[5-[2-fluoro-3-(pyrrolidin-1-ylsulfonylamino)benzoyl]-7H-pyrrolo[2,3-d]pyrimidin-4-yl]amino]acetate]
24 | 0.0001 to 1 | > 10 | > 10 | 0.0001 to 1 |  | CCN(C)S(=O)(=O)Nc1cccc(C(=O)c2c[nH]c3ncnc(NC)c23)c1F [P-2062, 5-[3-[[ethyl(methyl)sulfamoyl]amino]-2-fluoro-benzoyl]-4-(methylamino)-7H-pyrrolo[2,3-d]pyrimidine]
25 | 0.0001 to 1 | > 10 | > 10 | 0.0001 to 1 |  | CCN(C)S(=O)(=O)Nc1cccc(C(=O)c2c[nH]c3ncnc(C)c23)c1F [P-2090, 5-[3-[[ethyl(methyl)sulfamoyl]amino]-2-fluoro-benzoyl]-4-methyl-7H-pyrrolo[2,3-d]pyrimidine]
